Earlier results as cited in patent US20070207107A1, “Silicone based emulsions for topical drug delivery” (priority 2006, published 2007).

Experiments:
[1] = result in words
[2] = drug dissolved in 98% hexamethyldisiloxane and 2% silicone gum

| skin penetration from silicone formulation compared with silicone-free emulsion [2] | Structure (SMILES) | skin permeability (classification) [1] |
| --- | --- | --- |
| – | Cn1c(=O)c2c(ncn2C)n(C)c1=O [Caffeine] | relatively high skin permeability |
| increased the penetration | CC(C)Cc1ccc(C(C)C(=O)O)cc1 (stereo not shown) [ibuprofen] | – |
| reduced penetration | Clc1ccc(COC(Cn2ccnc2)c2ccc(Cl)cc2Cl)cc1 (stereo not shown) [econazole nitrate] | – |

| Structure (SMILES) | skin penetration from silicone formulation compared with silicone-free emulsion [2] | skin permeability (classification) [1] |
| --- | --- | --- |
| C[C@]12CCC(=O)C=C1CC[C@@H]1[C@@H]2[C@@H](O)C[C@@]2(C)[C@H]1CC[C@]2(O)C(=O)CO [hydrocortisone] | formation of a reservoir of hydrocortisone in the stratum corneum | – |
